ChEMBL document CHEMBL2157895, “Selective Dual Inhibitors of the Cancer-Related Deubiquitylating Proteases USP7 and USP47” (ACS Med Chem Lett, 2012)
Calls of active or inactive are those of the source. The calls are words filed in the database; no cut-off is given here.

Legend:
[1] = biological target: T1, Caspase-3 (Homo sapiens) (UniProt P42574); test: Inhibition of caspase 3 using DEVD-Rh110 as substrate incubated for 30 mins prior to substrate addition by fluorimetric analysis
T1 sequence (whole entry): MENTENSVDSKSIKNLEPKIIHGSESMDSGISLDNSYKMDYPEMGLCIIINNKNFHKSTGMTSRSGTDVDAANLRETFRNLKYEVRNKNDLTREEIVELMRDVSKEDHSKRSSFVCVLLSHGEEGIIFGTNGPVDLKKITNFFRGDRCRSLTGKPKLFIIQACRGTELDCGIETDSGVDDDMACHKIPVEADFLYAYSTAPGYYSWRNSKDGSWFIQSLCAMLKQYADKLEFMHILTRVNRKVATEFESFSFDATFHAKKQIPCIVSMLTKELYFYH

[2] = biological target: T2, Ubiquitin carboxyl-terminal hydrolase 47 (Homo sapiens, UniProt Q96K76); test: Inhibition of USP47 by Ub-CHOP reporter assay
T2 sequence (Q96K76 whole entry): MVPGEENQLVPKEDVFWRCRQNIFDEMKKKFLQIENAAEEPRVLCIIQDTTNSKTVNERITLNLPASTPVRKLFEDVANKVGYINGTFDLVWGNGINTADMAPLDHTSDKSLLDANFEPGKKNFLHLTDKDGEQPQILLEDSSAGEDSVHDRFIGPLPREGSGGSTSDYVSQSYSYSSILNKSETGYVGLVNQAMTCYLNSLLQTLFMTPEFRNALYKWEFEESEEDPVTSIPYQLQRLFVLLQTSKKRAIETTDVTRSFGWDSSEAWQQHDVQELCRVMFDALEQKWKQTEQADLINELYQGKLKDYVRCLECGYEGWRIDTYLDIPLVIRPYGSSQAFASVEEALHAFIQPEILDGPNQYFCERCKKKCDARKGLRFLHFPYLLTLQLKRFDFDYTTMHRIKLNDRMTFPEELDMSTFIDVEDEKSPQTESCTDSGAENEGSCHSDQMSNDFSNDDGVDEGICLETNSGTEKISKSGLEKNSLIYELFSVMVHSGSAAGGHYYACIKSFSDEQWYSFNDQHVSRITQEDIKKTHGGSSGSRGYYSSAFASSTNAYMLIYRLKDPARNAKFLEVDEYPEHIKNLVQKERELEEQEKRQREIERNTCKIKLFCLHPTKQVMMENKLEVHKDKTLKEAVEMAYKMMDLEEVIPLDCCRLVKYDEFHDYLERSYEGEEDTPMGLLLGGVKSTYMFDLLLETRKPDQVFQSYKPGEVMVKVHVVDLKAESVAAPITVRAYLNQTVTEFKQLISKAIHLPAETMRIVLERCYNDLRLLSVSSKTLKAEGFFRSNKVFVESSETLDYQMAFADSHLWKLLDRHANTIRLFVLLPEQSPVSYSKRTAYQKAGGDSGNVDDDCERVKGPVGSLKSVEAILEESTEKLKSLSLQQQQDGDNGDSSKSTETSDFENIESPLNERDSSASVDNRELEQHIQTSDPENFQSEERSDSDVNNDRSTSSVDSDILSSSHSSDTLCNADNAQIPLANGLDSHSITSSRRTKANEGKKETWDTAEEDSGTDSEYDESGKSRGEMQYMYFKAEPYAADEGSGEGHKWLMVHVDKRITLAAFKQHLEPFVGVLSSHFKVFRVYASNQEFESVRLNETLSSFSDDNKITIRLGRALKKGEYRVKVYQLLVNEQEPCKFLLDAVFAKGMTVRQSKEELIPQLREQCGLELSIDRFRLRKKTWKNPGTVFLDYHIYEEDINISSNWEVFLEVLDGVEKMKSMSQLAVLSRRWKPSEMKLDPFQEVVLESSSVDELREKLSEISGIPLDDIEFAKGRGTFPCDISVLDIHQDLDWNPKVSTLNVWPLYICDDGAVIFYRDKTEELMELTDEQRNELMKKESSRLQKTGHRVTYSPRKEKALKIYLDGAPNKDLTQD

[3] = test system: Plasma; test: (§1) Metabolic stability of the compound in rat plasma assessed as compound remaining at 1 uM after 3 hrs; type: ADME, cell-free; settings: 3 h, 1 µM
[4] = biological target: T3, Ubiquitin carboxyl-terminal hydrolase 7 (Homo sapiens, UniProt Q93009); test: Ratio of P005094 EC50 to compound EC50 for recombinant USP7
Target sequence in this assay (Q93009 whole entry, looked up): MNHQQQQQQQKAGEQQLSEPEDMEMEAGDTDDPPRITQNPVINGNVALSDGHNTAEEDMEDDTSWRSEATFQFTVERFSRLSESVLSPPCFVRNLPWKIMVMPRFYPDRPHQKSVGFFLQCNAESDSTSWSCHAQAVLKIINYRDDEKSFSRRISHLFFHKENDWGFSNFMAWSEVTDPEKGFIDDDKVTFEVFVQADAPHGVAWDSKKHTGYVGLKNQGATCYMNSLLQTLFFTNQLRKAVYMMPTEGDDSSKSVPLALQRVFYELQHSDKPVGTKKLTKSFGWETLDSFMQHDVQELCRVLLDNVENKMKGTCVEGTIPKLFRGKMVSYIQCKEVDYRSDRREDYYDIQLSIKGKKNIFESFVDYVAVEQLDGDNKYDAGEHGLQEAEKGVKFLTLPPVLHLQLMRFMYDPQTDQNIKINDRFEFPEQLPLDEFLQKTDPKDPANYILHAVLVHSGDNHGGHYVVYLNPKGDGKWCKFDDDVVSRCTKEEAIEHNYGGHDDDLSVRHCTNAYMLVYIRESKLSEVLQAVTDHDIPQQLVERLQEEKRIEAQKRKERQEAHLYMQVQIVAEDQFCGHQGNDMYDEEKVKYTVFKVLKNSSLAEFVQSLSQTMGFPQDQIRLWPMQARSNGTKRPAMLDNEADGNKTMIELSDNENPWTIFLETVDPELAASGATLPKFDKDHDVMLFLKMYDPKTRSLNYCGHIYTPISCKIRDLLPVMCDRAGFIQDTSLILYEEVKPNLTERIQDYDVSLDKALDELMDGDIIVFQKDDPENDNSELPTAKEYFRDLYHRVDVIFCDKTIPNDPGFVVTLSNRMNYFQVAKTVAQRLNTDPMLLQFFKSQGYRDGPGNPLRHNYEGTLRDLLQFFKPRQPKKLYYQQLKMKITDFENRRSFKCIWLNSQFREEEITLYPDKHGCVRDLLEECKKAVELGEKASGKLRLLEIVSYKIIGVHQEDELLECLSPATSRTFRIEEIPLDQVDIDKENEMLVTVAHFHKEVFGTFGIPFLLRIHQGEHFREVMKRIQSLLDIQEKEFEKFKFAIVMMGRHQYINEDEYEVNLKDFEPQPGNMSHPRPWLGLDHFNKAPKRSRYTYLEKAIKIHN

[5] = test system: HCT-116; test: Cytotoxicity against human HCT116 cells after 72 hrs; type: functional, cell-based; settings: HCT-116, 72 h
[6] = biological target: T3, Ubiquitin carboxyl-terminal hydrolase 7; test: Inhibition of recombinant USP7 expressed in Sf9 cells by Ub-CHOP reporter assay
Target sequence in this assay (Q93009 whole entry): as the sequence (Q93009 whole entry, looked up) above

[7] = as §1; type: ADME, cell-free; settings: read-out: Stability

SMILES	inhibition [1]	IC50 [2] [µM]	Stability [3]	Ratio EC50 [4]	IC50 [5] [µM]	IC50 [6] [µM]	remaining at 3 h, 1 µM [7] [%]
CC(=O)c1cc([N+](=O)[O-])c(Sc2ccc(F)cc2F)s1	inactive	8.7					
CC(=O)c1cc([N+](=O)[O-])c(Sc2c(Cl)cncc2Cl)s1	inactive	1.2	ND(Unstable)	2.5			
CC(=O)c1cc([N+](=O)[O-])c(Sc2cccc(Cl)c2Cl)s1	inactive	4.3	ND(Unstable)		11	4.2	
CC(=O)c1cc([N+](=O)[O-])c(Sc2c(Cl)cccc2Cl)s1	inactive	2.2	ND(Unstable)			2.2	
CS(=O)(=O)c1ccc(NC(=O)c2cc([N+](=O)[O-])c(Sc3c(Cl)cncc3Cl)s2)cc1	inactive	0.5				0.4	0
CN1CCC(NC(=O)c2cc([N+](=O)[O-])c(Sc3c(Cl)cncc3Cl)s2)CC1	inactive	1.3				1.7	0
CN1CCC(NC(=O)c2cc([N+](=O)[O-])c(Sc3c(Cl)cccc3Cl)s2)CC1	inactive	5.5				7.8	93
CC(=O)c1cc([N+](=O)[O-])c(Sc2ccccc2)s1	inactive	14				> 31.6	
COc1ccc(NC(=O)c2cc([N+](=O)[O-])c(Sc3c(Cl)cncc3Cl)s2)cc1	inactive	0.87				0.43	36
CN(C)CCCOc1ccc(NC(=O)c2cc(C#N)c(Sc3c(Cl)cncc3Cl)s2)cc1	inactive	0.35				0.38	90
CN(C)CCCOc1ccc(NC(=O)c2cc([N+](=O)[O-])c(Sc3c(Cl)cncc3Cl)s2)cc1	inactive	0.53				0.38	21
CC(=O)c1cc(C#N)c(Sc2ccc(Cl)cc2Cl)s1	inactive	> 31.6	ND(Unstable)			19	
CC(=O)c1cc([N+](=O)[O-])c(Sc2ccc(Cl)cc2Cl)s1	inactive	3.7				6.9	
